From patent publication US20070015840A1, “Use of an alkyl ether of hydroxystilbene for the treatment of dry skin” (L'OREAL, priority 2002, published 2007)

Tested on: immortalized human sebocytes derived from the SZ95 line
Assay: Lipogenesis in immortalized human sebocytes in culture (SZ95 line), Nile Red fluorescence, total lipids
Type: cell-based
Settings: for VARIATION IN LIPIDS (relative to the control): 0.1% DMSO, 24 hours treatment, total lipids, Nile Red
Method: Resveratrol trimethyl ether was tested on a model of immortalized human sebocytes in culture, derived from the SZ95 line described in Zouboulis, C. C., Seltmann, H., Neitzel, H. & Orfanos, C. E., Establishment and Characterization of an Immortalized Human Sebaceous Gland Cell Line, J. Invest. Dermatol., 113, 1011-1020 (1999).
The test consisted in measuring the amount of lipids produced by the sebocytes of the line (at confluence), in the presence or absence of an active agent diluted in DMSO, at two different concentrations, such that the final amount of DMSO in the culture medium is 0.1% and the amount of resveratrol trimethyl ether is 0.01% (4×10^−4 M) and 0.001% (4×10^−5 M), respectively. After treatment for 24 hours, the adherent cells are treated with Nile Red (1 μg/ml). The lipid content is then quantified by measuring the fluorescence of the dye (two excitation/emission pairs: 485-540 nm for the neutral lipids and 540-620 nm for the non-neutral lipids). The results are given for the total lipids (combination of the two measurements).
The experiment is performed in sextuplicate (products assayed and control) in 96-well plates and repeated four times.

SMILES	inhibition of lipogenesis (0.001%, same conditions as resveratrol trimethyl ether (second of 'respectively')) [%]	inhibition of lipogenesis (0.01%, same conditions as resveratrol trimethyl ether (first of 'respectively')) [%]	ability of sebocytes to produce sebum (qualitative statement in the description)	VARIATION IN LIPIDS (relative to the control) (0.001% (4×10^−5 M) compound)	VARIATION IN LIPIDS (relative to the control) (0.01% (4×10^−4 M) compound)
Oc1ccc(C=Cc2cc(O)cc(O)c2)cc1 [resveratrol]	67	20	decreased	–	–
COc1ccc(C=Cc2cc(OC)cc(OC)c2)cc1 [resveratrol trimethyl ether, Resveratrol trimethyl ether]	–	–	–	+36%	+46%
